Reference: ChEMBL document CHEMBL1127997, “Synthesis of new thiazinoindole derivatives and their evaluation as inhibitors of human leukocyte elastase and other related serine proteases” (Bioorg Med Chem Lett, 1994)
One block for each molecule: values may come before it.

How the values were obtained:
Neutrophil elastase [1] = molecular target: T1, Neutrophil elastase (Homo sapiens, UniProt P08246); assay: Compound was tested for inhibition of human leukocyte Elastase from human polymorphonuclear leukocytes; not inhibitory at the limit of solubility
T1 sequence (P08246 whole entry): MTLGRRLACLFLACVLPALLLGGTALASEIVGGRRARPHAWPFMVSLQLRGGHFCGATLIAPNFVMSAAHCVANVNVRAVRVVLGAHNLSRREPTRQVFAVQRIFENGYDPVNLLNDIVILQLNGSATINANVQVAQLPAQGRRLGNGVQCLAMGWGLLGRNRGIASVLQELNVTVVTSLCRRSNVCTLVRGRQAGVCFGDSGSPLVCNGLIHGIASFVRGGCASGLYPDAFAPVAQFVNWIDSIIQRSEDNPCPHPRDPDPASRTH

Neutrophil elastase [2] = molecular target: T1, Neutrophil elastase; assay: Compound was tested for inhibition of human leukocyte Elastase at 15 uM concentration from human polymorphonuclear leukocytes
Neutrophil elastase [3] = molecular target: T1, Neutrophil elastase; assay: Compound was tested for inhibition of human leukocyte Elastase at 16 uM concentration from human polymorphonuclear leukocytes
Neutrophil elastase [4] = molecular target: T1, Neutrophil elastase; assay: Compound was tested for inhibition of human leukocyte Elastase at 23 uM concentration from human polymorphonuclear leukocytes
[5] = molecular target: Chymotrypsinogen A (Bos taurus) (UniProt P00766); assay: Compound was tested for inhibitory activity against […] alpha-chymotrypsin; settings: concentration not given here
Neutrophil elastase [6] = molecular target: T1, Neutrophil elastase; assay: Compound was tested for inhibition of human leukocyte Elastase at 13 uM concentration from human polymorphonuclear leukocytes
[7] = molecular target: T2, Cathepsin G (Homo sapiens) (UniProt P08311); assay: Compound was tested for inhibitory activity against human Cathepsin G; settings: concentration not given here
T2 sequence (whole entry): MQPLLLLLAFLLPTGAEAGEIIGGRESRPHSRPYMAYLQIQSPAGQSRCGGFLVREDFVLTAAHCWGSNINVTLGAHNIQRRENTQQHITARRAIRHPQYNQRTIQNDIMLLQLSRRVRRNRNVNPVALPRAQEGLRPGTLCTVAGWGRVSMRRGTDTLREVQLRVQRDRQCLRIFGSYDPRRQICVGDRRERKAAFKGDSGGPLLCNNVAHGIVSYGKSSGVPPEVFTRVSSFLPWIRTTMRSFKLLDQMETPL

Neutrophil elastase [8] = molecular target: T1, Neutrophil elastase; assay: Compound was tested for inhibition of human leukocyte Elastase at 32 uM concentration from human polymorphonuclear leukocytes
Neutrophil elastase [9] = molecular target: T1, Neutrophil elastase; assay: Compound was tested for inhibition of human leukocyte Elastase at 51 uM concentration from human polymorphonuclear leukocytes
Neutrophil elastase [10] = molecular target: T1, Neutrophil elastase; assay: Compound was tested for inhibition of human leukocyte Elastase at 64 uM concentration from human polymorphonuclear leukocytes

SMILES: CCNc1nc2c3ccccc3nc-2c(O)s1
Ki (Neutrophil elastase [1]): No inhibition

SMILES: CCCNc1nc2c3ccccc3nc-2c(O)s1
Ki (Neutrophil elastase [1]): No inhibition

SMILES: Oc1sc(Nc2cccc(C(F)(F)F)c2)nc2c3ccccc3nc1-2
inhibition [5]: 34.2% | Ki (Neutrophil elastase [6]): ≥ 30 µM | inhibition [7]: 5.3%

SMILES: Oc1sc(Nc2ccccc2F)nc2c3ccccc3nc1-2
Ki (Neutrophil elastase [8]): ≥ 88 µM

SMILES: Oc1sc(Nc2cccc(F)c2)nc2c3ccccc3nc1-2
Ki (Neutrophil elastase [3]): ≥ 72 µM

SMILES: CNc1nc2c3ccccc3nc-2c(O)s1
Ki (Neutrophil elastase [1]): No inhibition

Second part, the molecule after the results:

Ki (Neutrophil elastase [2]): ≥ 45 µM
SMILES: O=[N+]([O-])c1ccc(Nc2nc3c4ccccc4nc-3c(O)s2)cc1

Ki (Neutrophil elastase [3]): ≥ 78 µM
SMILES: Cc1ccc(Nc2nc3c4ccccc4nc-3c(O)s2)cc1

Ki (Neutrophil elastase [4]): 29 µM
SMILES: Oc1sc(Nc2ccc(Cl)cc2)nc2c3ccccc3nc1-2

Ki (Neutrophil elastase [6]): ≥ 30 µM
SMILES: Oc1sc(Nc2ccc(Br)cc2)nc2c3ccccc3nc1-2

Ki (Neutrophil elastase [9]): ≥ 104 µM
SMILES: Oc1sc(Nc2ccc(F)cc2)nc2c3ccccc3nc1-2

inhibition [5]: 13.3% | inhibition [7]: 11.1% | Ki (Neutrophil elastase [10]): 43 µM
SMILES: Oc1sc(Nc2ccccc2)nc2c3ccccc3nc1-2
